From article PMC6337588, “Multi-Target Cinnamic Acids for Oxidative Stress and Inflammation: Design, Synthesis, Biological Evaluation and Modeling Studies” (Molecules, 2018)

test system: not listed separately; test: Inhibition of linoleic acid peroxidation (AAPH); assay type: biochemical; settings: anti-lipid peroxidation, 50 µM
Description: We also used water-soluble 2,2′-[…](2-amidinopropane) hydrochloride (AAPH) for the generation of free radicals. AAPH has been extensively used as a clean and controllable source of thermally produced alkylperoxyl free radicals. The peroxyl radicals produced by the action of AAPH show total similarity to cellular activities such as lipid peroxidation. […] It seems that the presence of 3,5-di-tert-butyl-group greatly enhances protection against lipid peroxidation (6i/ii and 7i/ii followed by 3ii and 5ii). The lipid peroxidation inhibitory activity seems to be concentration dependent.
2,2’-Azobis(2-amidinopropane) dihydrochloride (AAPH) was used as a free radical initiator to start the oxidation reaction. The method was based on the production of conjugated diene hydroperoxide by oxidation of linoleic acid at 234 nm expressed as an increased absorption. Trolox was used as reference compound (93%) (Table 2).

Row | SMILES | AAPH% 50 µM [%]
1 | O=C(O)C(=CC(Br)=Cc1ccccc1)c1ccc(Br)cc1 [Compound 4i, 4-Bromo-2-(4-bromophenyl)-5-phenylpenta-2,4-dienoic acid] | 52

same assay, conditions: anti-lipid peroxidation, 100 µM

Row | SMILES | AAPH% 100 µM [%]
2 | O=C(O)C(=CC(Br)=Cc1ccccc1)c1ccc(Br)cc1 [Compound 4i, 4-Bromo-2-(4-bromophenyl)-5-phenylpenta-2,4-dienoic acid] | 85

biological target: T1, soybean lipoxygenase (Glycine max, UniProt P08170); test: Soybean lipoxygenase inhibition in vitro; assay type: biochemical; settings: 100 µM
T1 construct: purchased Sigma Chemical, Co. (St. Louis)
T1 sequence (P08170 1-839): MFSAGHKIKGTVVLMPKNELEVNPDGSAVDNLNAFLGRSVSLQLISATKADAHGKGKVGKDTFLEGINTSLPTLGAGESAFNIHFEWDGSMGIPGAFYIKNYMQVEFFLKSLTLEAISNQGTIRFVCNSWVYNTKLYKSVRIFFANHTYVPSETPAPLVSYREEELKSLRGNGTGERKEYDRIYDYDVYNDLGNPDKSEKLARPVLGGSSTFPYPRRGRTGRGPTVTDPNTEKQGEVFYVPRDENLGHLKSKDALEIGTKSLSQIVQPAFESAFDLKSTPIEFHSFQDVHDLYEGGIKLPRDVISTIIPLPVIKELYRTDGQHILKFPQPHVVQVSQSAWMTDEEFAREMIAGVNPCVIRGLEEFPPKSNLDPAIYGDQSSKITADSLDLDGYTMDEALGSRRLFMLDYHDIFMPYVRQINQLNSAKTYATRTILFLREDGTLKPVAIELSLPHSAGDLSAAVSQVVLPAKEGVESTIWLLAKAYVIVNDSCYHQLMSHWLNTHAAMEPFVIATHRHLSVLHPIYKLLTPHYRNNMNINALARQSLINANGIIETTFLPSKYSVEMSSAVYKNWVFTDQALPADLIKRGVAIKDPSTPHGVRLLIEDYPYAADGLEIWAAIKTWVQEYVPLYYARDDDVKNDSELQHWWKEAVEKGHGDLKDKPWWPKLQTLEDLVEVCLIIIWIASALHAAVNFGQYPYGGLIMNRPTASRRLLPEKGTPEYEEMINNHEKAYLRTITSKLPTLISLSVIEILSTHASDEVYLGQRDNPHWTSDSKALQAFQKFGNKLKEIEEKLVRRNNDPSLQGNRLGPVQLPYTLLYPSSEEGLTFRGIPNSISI
Method: Many research groups have used readily obtainable soybean lipoxygenase, which is a homologue of mammalian lipoxygenase and well studied. Due to its availability and its well-characterised crystal structure, soybean LOX was selected to be used in this study.
In vitro study was evaluated as reported previously by our group. The tested compounds were incubated at room temperature with sodium linoleate (0.1 mM) and 0.2 mL of enzyme solution (1/9 × 104 w/v in saline). The method was based to the conversion of sodium linoleate to 13-hydroperoxylinoleic acid at 234 nm. […] In order to determine the IC50 values different concentrations were used.

Row | LOX % Inhibition 100 µM [%] | SMILES
3 | 28 | O=C(O)C(=CC(Br)=Cc1ccccc1)c1ccc(Br)cc1 [Compound 4i, 4-Bromo-2-(4-bromophenyl)-5-phenylpenta-2,4-dienoic acid]

same assay, conditions: 100 µM, read-out: LOX % Inhibition 100 µM

Row | inhibition at 100 µM [%] | SMILES
4 | 27.9 | O=C(O)C(=CC(Br)=Cc1ccccc1)c1ccc(Br)cc1 [Compound 4i, 4-Bromo-2-(4-bromophenyl)-5-phenylpenta-2,4-dienoic acid]

test system: not listed separately; test: Experimental lipophilicity as RM values by reversed phase TLC (RPTLC); assay type: physicochemical; settings: methanol/water 77/23 with 0.1% acetic acid, 24 °C, average of at least 5 measurements
Description: Lipophilicity is a physicochemical property correlated with the biological activity. Lipophilicity influences ligand-target binding interactions, solubility, absorption, distribution, bioavailability, metabolism and elimination (ADME) and toxicological outcomes. The lipophilicity of the novel cinnamic acids was experimentally measured as RM values using a reverse phase thin layer chromatography (RPTLC) method. This is acknowledged as a reliable, fast and convenient approach for expressing lipophilicity (Table 1). RM relates to the thermodynamic Rf value in a logarithmic form. Bate-Smith and Westall firstly determined lipophilicity as RM values in 1950 [31]. The Br-substituted derivatives 1i–7i are more lipophilic than the OH-substituted ones 1ii–7ii which can be easily explained by their structural characteristics.
Reversed phase TLC (RPTLC) was performed on silica gel plates impregnated with 55% (v/v) liquid paraffin in light petroleum ether. The mobile phase was a methanol/water mixture (77/23, v/v) containing 0.1% of acetic acid. The plates were developed in closed chromatography tanks saturated with the mobile phase at 24 °C. Spots were detected under UV light. RM values were determined from the corresponding Rf values (from five individual measurements) using the equation RM = log[(1/Rf) − 1] [17, 18, 28].

Row | RM (±SD) | SMILES
5 | 0.423 (0.017) | O=C(O)C(=CC(Br)=Cc1ccccc1)c1ccc(Br)cc1 [Compound 4i, 4-Bromo-2-(4-bromophenyl)-5-phenylpenta-2,4-dienoic acid]

test system: not listed separately; test: Non enzymatic assay of superoxide radical scavenging activity (PMS/NADH/NBT); assay type: biochemical; settings: not given
Method: Superoxide radical is a main cause of oxidative stress, expressing its biological toxicity by the inactivation of iron-sulfur cluster containing enzymes. The superoxide anion radical (O2^−^•) is less toxic than the hydroxyl radical, but still being one of the most known toxic reactive oxygen species (ROS). In this assay the superoxide anion radicals were generated by a non-enzymatically assay and the compounds are tested at 100 μM final concentration (Table 2). Caffeic acid (CA) has been used as a reference compound. Compound 4ii presented the highest activity, followed by compound 3ii. We succeeded to derive a quantitative-structure activity relationship model for this activity in which the topological polar surface (TPAS) of the compounds seem to govern the superoxide anion scavenging activity:% Superoxide Anion Scavenging Activity (100 µM) = 0.019 (±0.007) TPSA + 0.813 (±0.358) n = 6, r = 0.962, r^2 = 0.926, q^2 = 0.694, s = 0.122, Q = 7.885, F1,6 = 3.701, α = 0.1 clog P vs. TPSA 0.
The superoxide radicals are generated by mixing N-methylphenazonium methyl sulfate (PMS), NADH and air–oxygen and determined by the nitroblue tetrazolium method and measured at 560 nm (Table 2). Caffeic acid was used as reference compound [17, 18, 28].

Row | SMILES | O2−•% 100 µM [%]
6 | O=C(O)C(=CC(Br)=Cc1ccccc1)c1ccc(Br)cc1 [Compound 4i, 4-Bromo-2-(4-bromophenyl)-5-phenylpenta-2,4-dienoic acid] | 46

test system: not given; test: not given; settings: not given

Row | melting point [°C] | SMILES
7 | 211 to 212 | O=C(O)C(=CC(Br)=Cc1ccccc1)c1ccc(Br)cc1 [Compound 4i, 4-Bromo-2-(4-bromophenyl)-5-phenylpenta-2,4-dienoic acid]

test system: not listed separately; test: ABTS+• decolorization assay; assay type: biochemical; settings: 1 min, 734 nm
Method: No role for lipophilicity was found. Oxidation of ABTS with potassium persulfate generates directly the ABTS radical cation (ABTS^+•) with no involvement of an intermediary radical, which is then reduced upon adding electron-donating antioxidants.
In order to produce the ABTS radical cation (ABTS^+•), ABTS stock solution in water (7 mM) was mixed with potassium persulfate (2.45 mM) and left in the dark at room temperature for 12–16 h before use. Our published experimental technique was used (Table 2). The results are recorded after 1 min of the mixing solutions at 734 nm. The results were compared to the appropriate standard inhibitor Trolox.

Row | SMILES | ABTS+•% 100 µM [%]
8 | O=C(O)C(=CC(Br)=Cc1ccccc1)c1ccc(Br)cc1 [Compound 4i, 4-Bromo-2-(4-bromophenyl)-5-phenylpenta-2,4-dienoic acid] | 24

test system: not listed separately; test: Reducing activity of the stable radical DPPH; assay type: biochemical; settings: 50 µM, 20 min
Method: The substituted acids were monitored for the antioxidant activity by the use of the stable 2,2-diphenyl-1-picrylhydrazyl radical (DPPH) at concentration 50 µM and 100 µM after 20 and 60 min (Table 1). In this assay the DPPH radical is reduced by single electron transfer from the antioxidant. Strong antioxidants are the phenoxide anions from phenolic compounds like catechol and derivatives, such as nordihydroguaretic acid (NDGA), the reference compound. The compounds presented medium reducing abilities from 29–61%, due to steric reasons; small differences were found among the compounds with time and concentration. 4-Br-substituted-3 phenyl acetic acid derivatives (Series I) are equipotent to 4-OH-substituted-3 phenyl acetic acid derivatives (Series II). No differences were observed between 4i and 5i and 4ii and 5ii.
To a solution of DPPH in absolute ethanol an equal volume of the compounds dissolved in DMSO was added. The final concentrations of the measured solutions of the novel acids were 50 and 100 µM starting from a stock solution (10 mM) in DMSO. The absorbance was recorded at 517 nm, after 20 and 60 min at room temperature (Table 1).

Row | SMILES | RA% 50 µM 20 min [%]
9 | O=C(O)C(=CC(Br)=Cc1ccccc1)c1ccc(Br)cc1 [Compound 4i, 4-Bromo-2-(4-bromophenyl)-5-phenylpenta-2,4-dienoic acid] | 30

same assay, conditions: 50 µM, 60 min

Row | SMILES | RA% 50 µM 60 min [%]
10 | O=C(O)C(=CC(Br)=Cc1ccccc1)c1ccc(Br)cc1 [Compound 4i, 4-Bromo-2-(4-bromophenyl)-5-phenylpenta-2,4-dienoic acid] | 30

same assay, conditions: 100 µM, 20 min

Row | SMILES | RA% 100 µM 20 min [%]
11 | O=C(O)C(=CC(Br)=Cc1ccccc1)c1ccc(Br)cc1 [Compound 4i, 4-Bromo-2-(4-bromophenyl)-5-phenylpenta-2,4-dienoic acid] | 38

same assay, conditions: 100 µM, 60 min

Row | SMILES | RA% 100 µM 60 min [%]
12 | O=C(O)C(=CC(Br)=Cc1ccccc1)c1ccc(Br)cc1 [Compound 4i, 4-Bromo-2-(4-bromophenyl)-5-phenylpenta-2,4-dienoic acid] | 36

test system: not listed separately; test: Competition with DMSO for hydroxyl radicals (Fe3+/ascorbic acid system); assay type: biochemical; settings: hydroxyl radical scavenging
Method: Competition of the novel substituted acids with DMSO for hydroxyl radicals was measured. Hydroxyl radicals were generated using the Fe^3+/ascorbic acid system and expressed as a percentage inhibition of formaldehyde production in the presence of each compound at 100 μM (Table 2). All the synthesized derivatives strongly scavenge hydroxyl radicals at 100 μM in comparison to the reference compound Trolox.
The hydroxyl radicals generated by the Fe^3+/ascorbic acid system, were detected by the determination of formaldehyde produced from the oxidation of DMSO (Table 2). Trolox was used as reference compound [17, 18, 28].

Row | SMILES | HO•% 100 µM [%]
13 | O=C(O)C(=CC(Br)=Cc1ccccc1)c1ccc(Br)cc1 [Compound 4i, 4-Bromo-2-(4-bromophenyl)-5-phenylpenta-2,4-dienoic acid] | 83
